Values of other authors, collected in US20190282525A1, “TIOPRONIN ORAL COMPOSITION” (CRONUS RESEARCH LABS PRIVATE LIMITED, priority 2018, published 2019).

Settings: 'might be expected'

CC(S)C(=O)NCC(=O)O (stereo not drawn) [tiopronin, α-mercaptopropionylglycine]
reduction in urinary cystine (tiopronin dosage of 1 g/day): 250 to 350 mg/day | decline in urinary cystine (tiopronin dosage of 2 g/day): approximately 500 mg/day
